Results on three molecules are retold here after patent publication US20150031655A1, “COMBINATION OF LIVER X RECEPTOR MODULATOR AND ESTROGEN RECEPTOR MODULATOR FOR THE TREATMENT OF AGE-RELATED DISEASES” (UNIVERSITY OF NORTH DAKOTA, priority 2011, published 2015).

The test system of one series is TH. Kind of series: Western blot of TH protein levels in SH-SY5Y neuroblastoma cells. The series is classed as cell-based, human. Particulars: for TH protein levels / TH expression: 24 h, treatment alone vs control (10 μM 27-OHC, 1 nM estradiol, 10 μM GW3965, 10 μM ECHS). The procedure:
(§1) Human neuroblastoma SH-SY5Y cells were grown in DMEM/F12 medium containing 10% fetal bovine serum (FBS) and 1% antibiotic/antimycotic mix. Cells were maintained at 37° C. in a saturated humidity atmosphere containing 95% air and 5% CO2.
(§2) Treated SH-SY5Y cells were washed with PBS and trypsinized to collect the cells and centrifuged at 5000 g. The pellet was washed again with PBS and homogenized in NE-PER tissue protein extraction reagent (Thermo Scientific, Rockford, Ill.) supplemented with protease and phosphatase inhibitors. Protein concentrations from the cytosolic and nuclear homogenates were determined with BCA protein assay.
(§3) Proteins (10 μg) were separated on SDS-PAGE gels, transferred to a polyvinylidene difluoride membrane (BioRad, Hercules, Calif.), and incubated with the following monoclonal antibodies: anti-TH mouse antibody (1:1000; Sigma Aldrich, Saint Louis, Mo.), anti-α-synuclein mouse antibody (1:500; Chemicon, Temecula, Calif.), anti-ERα rabbit antibody (1:500; Abcam, Cambridge, Mass.), anti-ERβ rabbit antibody (1:200; Upstate, Lake Placid, N.Y.), anti-LXRα rabbit antibody (1:500; Abcam, Cambridge, Mass.), anti-LXRβ mouse antibody (1:500; Abcam, Cambridge, Mass.).
(§4) β-actin and Lamin A were used as a gel loading control for cytosolic homogenates and nuclear homogenates respectively. The blots were developed with enhanced chemiluminescence (Immmun-star HRP chemiluminescent kit, Bio-Rad, Hercules, Calif.). Bands were visualized on a polyvinylidene difluoride membrane and analyzed by LabWorks 4.5 software on a UVP Bioimaging System (Upland, Calif.). Quantification of results was performed by densitometry and the results analyzed as total integrated densitometric values (arbitrary units).
(In western blotting, separated proteins are transferred to a membrane and probed.)

The target in series [1] is T1, ERα (Homo sapiens, UniProt P03372).
T1 construct: endogenous in cells; host or cells: SH-SY5Y human neuroblastoma cells
T1 sequence (P03372 1-595): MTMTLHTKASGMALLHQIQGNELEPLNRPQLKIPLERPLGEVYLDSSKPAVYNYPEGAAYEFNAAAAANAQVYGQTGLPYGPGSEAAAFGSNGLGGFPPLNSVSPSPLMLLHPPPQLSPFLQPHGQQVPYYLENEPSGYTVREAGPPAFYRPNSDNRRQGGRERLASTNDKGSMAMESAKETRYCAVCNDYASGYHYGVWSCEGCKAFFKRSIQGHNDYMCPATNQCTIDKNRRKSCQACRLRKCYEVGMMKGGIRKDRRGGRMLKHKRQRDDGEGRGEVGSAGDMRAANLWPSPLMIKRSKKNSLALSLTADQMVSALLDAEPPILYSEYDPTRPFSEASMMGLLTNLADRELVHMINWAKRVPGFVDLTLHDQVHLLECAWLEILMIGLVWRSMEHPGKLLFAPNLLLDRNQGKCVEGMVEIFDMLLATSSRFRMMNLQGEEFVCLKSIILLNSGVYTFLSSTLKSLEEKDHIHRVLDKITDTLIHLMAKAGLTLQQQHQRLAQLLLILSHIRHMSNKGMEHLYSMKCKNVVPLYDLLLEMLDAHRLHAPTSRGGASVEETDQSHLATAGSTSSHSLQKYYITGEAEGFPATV
Kind of series: Western blot of ERα levels in the nucleus (nuclear translocation), SH-SY5Y cells. The series is classed as cell-based. The following applies: 24 h, treatment alone vs control. The procedure: as §1

The next series concerns ERα/β. As to the kind of experiment: EMSA, binding of nuclear ER to probe for the ERE half site in the TH promoter. It counts as cell-based, human. Particulars: nuclear extracts of treated SH-SY5Y, treatment alone vs control.
In series [2] the target is T1, ERα. As to the kind of experiment: ChIP, ERα binding to the ERE half site in the TH promoter. It counts as cell-based. Particulars: SH-SY5Y, treatment alone vs control. The procedure:
as §1
(§5) ChIP analysis was performed to evaluate the extent of ERα/ERβ and LXRα/LXRβ binding to the DNA elements in the TH promoter and α-synuclein promoter regions respectively using “SimpleChIP™ Enzymatic Chromatic IP kit” from Cell Signaling (Boston, Mass.).
(§6) Briefly, cells from each treatment group (3×10^6 cells) were washed with PBS, trypsinized, centrifuged at 5000 g. The pellet containing the cells was further washed with PBS and cross-linked using 37% formaldehyde for 15 min followed by the addition of glycine solution to cease the cross-linking reaction.
(§7) The cells were washed with 4× volumes of 1×PBS and centrifuged at ˜220 g for 5 min. The pellet was resuspended and incubated for 10 min in 5 ml of tissue lysis buffer containing DTT and protease and phosphatase inhibitors. The subsequent steps to isolate the cross-linked chromatin were performed according to the manufacturer's protocol.
(§8) The cross-linked chromatin from each sample was apportioned into four equal parts.

The next series has as its target T2, ERβ (Homo sapiens, UniProt Q92731).
T2 construct: endogenous in cells; host or cells: SH-SY5Y human neuroblastoma cells
Kind of series: ChIP, ERβ binding to the ERE half site in the TH promoter. The series is classed as cell-based. Particulars: SH-SY5Y, treatment alone vs control. The method, then: as §1, §5, §6, §7, §8

In a further series the test system is α-synuclein. Kind of series: Western blot of α-synuclein protein levels in SH-SY5Y cells. The series is classed as cell-based, human. Particulars: for increase in α-synuclein protein / expression levels / 27-OHC-induced increase in α-synuclein protein levels: 24 h; for 27-OHC-induced increase in α-synuclein protein levels: co-treatment with 10 μM 27-OHC. The method, then:
as §1, §2, §3, §4

The target of the next series is T3, LXRα (Homo sapiens, UniProt Q13133).
T3 construct: endogenous in cells; host or cells: SH-SY5Y human neuroblastoma cells
T3 sequence (Q13133 1-447): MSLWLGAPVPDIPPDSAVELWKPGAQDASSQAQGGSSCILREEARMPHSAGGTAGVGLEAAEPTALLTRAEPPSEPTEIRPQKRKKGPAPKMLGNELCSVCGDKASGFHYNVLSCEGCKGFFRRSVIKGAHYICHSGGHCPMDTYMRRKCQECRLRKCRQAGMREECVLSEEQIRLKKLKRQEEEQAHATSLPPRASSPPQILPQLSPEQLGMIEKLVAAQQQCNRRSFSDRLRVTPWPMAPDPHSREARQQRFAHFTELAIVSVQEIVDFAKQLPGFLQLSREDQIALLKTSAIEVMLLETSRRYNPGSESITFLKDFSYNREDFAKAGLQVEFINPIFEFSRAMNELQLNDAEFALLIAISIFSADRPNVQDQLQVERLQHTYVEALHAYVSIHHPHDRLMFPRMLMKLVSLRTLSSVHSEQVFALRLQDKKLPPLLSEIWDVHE
Kind of series: Western blot of LXRα levels in the nucleus, SH-SY5Y cells. It counts as cell-based. Particulars: for LXRα protein levels in the nucleus: 24 h, treatment alone vs control; for 27-OHC-induced increase in LXRα in the nucleus: co-treatment with 10 μM 27-OHC. The procedure: as §1, §2, §3, §4

The test system of the next series is LXRα/β. As to the kind of experiment: EMSA, binding of LXRα/β to probe for the LXRE in the α-synuclein promoter. It counts as cell-based, human. Particulars: for binding of LXRα/β to the exogenous DNA sequence containing the LXRE: nuclear extracts of treated SH-SY5Y, treatment alone vs control.
For series [3], the system named is ARPE-19 cells. Kind of series: ROS levels in ARPE-19 cells. It counts as cell-based. The following applies: ARPE-19, 24 h.
In series [4] the test system is ARPE-19 cells. The series is classed as cell-based. The procedure: ARPE-19 cells were treated with 0, 10 or 25 μM 27-OHC for 24 hours.

T2 sequence (Q92731 whole entry): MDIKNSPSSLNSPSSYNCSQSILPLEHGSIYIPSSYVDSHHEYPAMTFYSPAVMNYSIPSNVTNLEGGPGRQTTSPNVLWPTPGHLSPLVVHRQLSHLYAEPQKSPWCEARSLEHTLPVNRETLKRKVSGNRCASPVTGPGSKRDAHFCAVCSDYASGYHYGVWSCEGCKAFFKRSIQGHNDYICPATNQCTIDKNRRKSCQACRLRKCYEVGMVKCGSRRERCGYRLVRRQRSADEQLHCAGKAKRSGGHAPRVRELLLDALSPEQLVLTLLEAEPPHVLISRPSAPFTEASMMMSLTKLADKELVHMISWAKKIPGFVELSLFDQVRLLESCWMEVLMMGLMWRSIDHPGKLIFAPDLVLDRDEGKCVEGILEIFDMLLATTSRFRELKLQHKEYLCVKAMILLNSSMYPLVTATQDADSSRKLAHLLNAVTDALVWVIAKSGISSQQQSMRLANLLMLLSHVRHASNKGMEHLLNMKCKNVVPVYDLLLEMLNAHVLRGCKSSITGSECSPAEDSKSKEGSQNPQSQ

`C[C@@H](CO)CCC[C@@H](C)[C@H]1CC[C@H]2[C@@H]3CC=C4C[C@@H](O)CC[C@]4(C)[C@H]3CC[C@]12C` [27-OHC, 27-hydroxycholesterol]: the “TH protein levels / TH expression” value with TH was “significant decrease”. Further, at ERα [1], the “nuclear translocation / nuclear levels of ERα” value is “decrease”. The “binding of nuclear ER to the DNA probe corresponding to the ERE-half site on the TH promoter” value in the series on ERα/β is recorded as “lower binding”. The “ERα binding to the ERE on the TH promoter” value at ERα [2] is “no significant attenuation”. Further, the “attenuation of ERβ binding to the ERE on the TH promoter” value at ERβ is 4 fold. Further, in the series with α-synuclein (treatment alone vs control), the “increase in α-synuclein protein / expression levels” value is 2.3 fold. In addition, the “LXRα protein levels in the nucleus” value at LXRα is listed as “increases”. The “binding of LXRα/β to the exogenous DNA sequence containing the LXRE” value in the series on LXRα/β was “increases”. Besides, in the series with ARPE-19 cells [3] (10 μM, alone vs control), the “reactive oxygen species (ROS) levels” value is on record as “increases”. In addition, in the series with ARPE-19 cells [4], the “toxicity to RPE cells” value was “toxic”. Also, in the series with ARPE-19 cells [4] (ARPE-19, 0, 10 or 25 μM, 24 hours), the Aβ peptide production result is “dose-dependently increased”. Further, in the series on ARPE-19 cells [4] (ARPE-19, 10 or 25 μM, 24 hours), the “Ca^2+ homeostasis” value is “dyshomeostasis”; the ROS generation entry was “ROS generation”; the glutathione result is “glutathione depletion”; the “levels of ER stress specific markers caspase 12 and gadd153” value is reported as “increased”. In addition, in the series on ARPE-19 cells [4] (ARPE-19, 10 or 25 μM, 24 hours), the “levels of NFκB and heme-oxygenase 1 (HO-1)” value is listed as “increased”; the mitochondrial membrane potential entry was “reduced”.

Consider `CC(C)CCC[C@@H](C)[C@H]1CC[C@H]2[C@@H]3C[C@@H]4O[C@@]45C[C@@H](OS(=O)(=O)O)CC[C@]5(C)[C@H]3CC[C@]12C` [ECHS, 5α,6α-epoxycholesterol-3-sulfate], for which, in the series with TH, the “TH protein levels / TH expression” value was “no effect”. Besides, the “effect of estradiol on 27-OHC-induced decrease in TH expression” value in the series with TH (ECHS added to 27-OHC+estradiol) is reported as “does not alter”. Further, the TH expression entry in the series with TH (in combination with estradiol) is listed as “no effect”. Also, the “27-OHC-induced increase in α-synuclein protein levels” value with α-synuclein is recorded as “significantly attenuated”. The “basal α-synuclein expression levels” value in the series with α-synuclein (treatment alone vs control) is listed as “does not produce any effect”. At LXRα, the “LXRα protein levels in the nucleus” value was “reduced” and the “27-OHC-induced increase in LXRα in the nucleus” value is “significantly attenuated”. In addition, the “27-OHC-induced increase in LXRα/β binding to the LXRE consensus motif” value with LXRα/β (co-treatment with 27-OHC) is given as “mitigates”. Further, the “binding of LXRα/β to the exogenous DNA sequence containing the LXRE” value with LXRα/β is reported as “decreased”. In the series on ARPE-19 cells [3] (co-treatment with 27-OHC, all at 10 μM), the “27-OHC-induced increase in ROS levels” value is recorded as “reduced”.

On to `Cl.O=C(O)Cc1cccc(OCCCN(Cc2cccc(C(F)(F)F)c2Cl)CC(c2ccccc2)c2ccccc2)c1` [GW3965, 3-[3-[N-(2-Chloro-3-trifluoromethylbenzyl)-(2,2-diphenylethyl)amino]propyloxy]phenylacetic acid hydrochloride], for which the “TH protein levels / TH expression” value with TH is reported as “no effect”. Moreover, in the series with α-synuclein, the “27-OHC-induced increase in α-synuclein protein levels” value was “accentuates”. Besides, the “increase in α-synuclein protein / expression levels” value in the series with α-synuclein (treatment alone vs control) is 3 fold. At LXRα, the “LXRα protein levels in the nucleus” value is listed as “more pronounced increase” and the “27-OHC-induced increase in LXRα in the nucleus” value was “to the same extent”.
